Measured values taken from ChEMBL document CHEMBL4138146, “A Schmidt rearrangement-mediated synthesis of novel tetrahydro-benzo[1,4]diazepin-5-ones as potential anticancer and antiprotozoal agents” (Eur J Med Chem, 2017).

Tests used:
Type in all cases: functional
[1] = test system: MOLT-4; experiment: Growth inhibition of human MOLT4 cells assessed as cell growth at 10^-8 M incubated for 48 hrs by sulforhodamine B assay relative to control; conditions: MOLT-4, 48 h, read-out: Activity
[2] = test system: SNB-19; experiment: Growth inhibition of human SNB19 cells assessed as cell growth at 10^-8 M incubated for 48 hrs by sulforhodamine B assay relative to control; conditions: SNB-19, 48 h, read-out: Activity
[3] = test system: Hs-578T; experiment: Growth inhibition of human Hs 578T cells assessed as cell growth at 10^-8 M incubated for 48 hrs by sulforhodamine B assay relative to control; conditions: read-out: Activity
[4] = test system: T47D; experiment: Growth inhibition of human T47D cells assessed as cell growth at 10^-8 M incubated for 48 hrs by sulforhodamine B assay relative to control; conditions: read-out: Activity
[5] = test system: A549; experiment: Growth inhibition of human A549/ATCC cells assessed as cell growth at 10^-7 M incubated for 48 hrs by sulforhodamine B assay relative to control; conditions: A549, 48 h, read-out: Activity
[6] = test system: HCT-116; experiment: Growth inhibition of human HCT116 cells assessed as cell growth at 10^-7 M incubated for 48 hrs by sulforhodamine B assay relative to control; conditions: HCT-116, 48 h, read-out: Activity
[7] = test system: SK-MEL-5; experiment: Growth inhibition of human SK-MEL-5 cells assessed as cell growth at 10^-7 M incubated for 48 hrs by sulforhodamine B assay relative to control; conditions: SK-MEL-5, 48 h, read-out: Activity
[8] = test system: UACC-257; experiment: Growth inhibition of human UACC257 cells assessed as cell growth at 10^-7 M incubated for 48 hrs by sulforhodamine B assay relative to control; conditions: UACC-257, 48 h, read-out: Activity
[9] = test system: OVCAR-3; experiment: Growth inhibition of human OVCAR3 cells assessed as cell growth at 10^-7 M incubated for 48 hrs by sulforhodamine B assay relative to control; conditions: OVCAR-3, 48 h, read-out: Activity
[10] = test system: RXF 393; experiment: Growth inhibition of human RXF393 cells assessed as cell growth at 10^-7 M incubated for 48 hrs by sulforhodamine B assay relative to control; conditions: RXF 393, 48 h, read-out: Activity
[11] = test system: T47D; experiment: Growth inhibition of human T47D cells assessed as cell growth at 10^-7 M incubated for 48 hrs by sulforhodamine B assay relative to control; conditions: read-out: Activity
[12] = test system: K562; experiment: Growth inhibition of human K562 cells assessed as cell growth at 10^-6 M incubated for 48 hrs by sulforhodamine B assay relative to control; conditions: K562, 48 h, read-out: Activity
[13] = test system: A549; experiment: Growth inhibition of human A549/ATCC cells assessed as cell growth at 10^-6 M incubated for 48 hrs by sulforhodamine B assay relative to control; conditions: A549, 48 h, read-out: Activity
[14] = test system: HOP-62; experiment: Growth inhibition of human HOP62 cells assessed as cell growth at 10^-6 M incubated for 48 hrs by sulforhodamine B assay relative to control; conditions: HOP-62, 48 h, read-out: Activity
[15] = test system: NCI-H460; experiment: Growth inhibition of human NCI-H460 cells assessed as cell growth at 10^-6 M incubated for 48 hrs by sulforhodamine B assay relative to control; conditions: NCI-H460, 48 h, read-out: Activity
[16] = test system: COLO 205; experiment: Growth inhibition of human COLO205 cells assessed as cell growth at 10^-6 M incubated for 48 hrs by sulforhodamine B assay relative to control; conditions: COLO 205, 48 h, read-out: Activity
[17] = test system: SNB-75; experiment: Growth inhibition of human SNB75 cells assessed as cell growth at 10^-6 M incubated for 48 hrs by sulforhodamine B assay relative to control; conditions: SNB-75, 48 h, read-out: Activity
[18] = test system: M14; experiment: Growth inhibition of human M14 cells assessed as cell growth at 10^-6 M incubated for 48 hrs by sulforhodamine B assay relative to control; conditions: M14, 48 h, read-out: Activity
[19] = test system: CAKI-1; experiment: Growth inhibition of human Caki1 cells assessed as cell growth at 10^-6 M incubated for 48 hrs by sulforhodamine B assay relative to control; conditions: CAKI-1, 48 h, read-out: Activity
[20] = test system: MOLT-4; experiment: Growth inhibition of human MOLT4 cells assessed as cell growth at 10^-5 M incubated for 48 hrs by sulforhodamine B assay relative to control; conditions: MOLT-4, 48 h, read-out: Activity
[21] = test system: SR; experiment: Growth inhibition of human SR cells assessed as cell growth at 10^-5 M incubated for 48 hrs by sulforhodamine B assay relative to control; conditions: read-out: Activity
[22] = test system: Hs-578T; experiment: Growth inhibition of human Hs 578T cells assessed as cell growth at 10^-5 M incubated for 48 hrs by sulforhodamine B assay relative to control; conditions: read-out: Activity
[23] = test system: HL-60(TB); experiment: Growth inhibition of human HL-60(TB) cells assessed as cell growth at 10^-4 M incubated for 48 hrs by sulforhodamine B assay relative to control; conditions: HL-60, 48 h, read-out: Activity
[24] = test system: RPMI-8226; experiment: Growth inhibition of human RPMI8226 cells assessed as cell growth at 10^-4 M incubated for 48 hrs by sulforhodamine B assay relative to control; conditions: RPMI-8226, 48 h, read-out: Activity
[25] = test system: NCI-H226; experiment: Growth inhibition of human NCI-H226 cells assessed as cell growth at 10^-4 M incubated for 48 hrs by sulforhodamine B assay relative to control; conditions: NCI-H226, 48 h, read-out: Activity
[26] = test system: SF-539; experiment: Growth inhibition of human SF539 cells assessed as cell growth at 10^-4 M incubated for 48 hrs by sulforhodamine B assay relative to control; conditions: SF-539, 48 h, read-out: Activity
[27] = test system: SNB-19; experiment: Growth inhibition of human SNB19 cells assessed as cell growth at 10^-4 M incubated for 48 hrs by sulforhodamine B assay relative to control; conditions: SNB-19, 48 h, read-out: Activity
[28] = test system: MDA-MB-435; experiment: Growth inhibition of human MDA-MB-435 cells assessed as cell growth at 10^-4 M incubated for 48 hrs by sulforhodamine B assay relative to control; conditions: MDA-MB-435, 48 h, read-out: Activity
[29] = test system: OVCAR-3; experiment: Growth inhibition of human OVCAR3 cells assessed as cell growth at 10^-4 M incubated for 48 hrs by sulforhodamine B assay relative to control; conditions: OVCAR-3, 48 h, read-out: Activity
[30] = test system: OVCAR-5; experiment: Growth inhibition of human OVCAR5 cells assessed as cell growth at 10^-4 M incubated for 48 hrs by sulforhodamine B assay relative to control; conditions: OVCAR-5, 48 h, read-out: Activity
[31] = test system: ACHN; experiment: Growth inhibition of human ACHN cells assessed as cell growth at 10^-4 M incubated for 48 hrs by sulforhodamine B assay relative to control; conditions: read-out: Activity
[32] = test system: RXF 393; experiment: Growth inhibition of human RXF393 cells assessed as cell growth at 10^-4 M incubated for 48 hrs by sulforhodamine B assay relative to control; conditions: RXF 393, 48 h, read-out: Activity
[33] = test system: SN12C; experiment: Growth inhibition of human SN12C cells assessed as cell growth at 10^-4 M incubated for 48 hrs by sulforhodamine B assay relative to control; conditions: read-out: Activity
[34] = test system: UO-31; experiment: Growth inhibition of human UO31 cells assessed as cell growth at 10^-4 M incubated for 48 hrs by sulforhodamine B assay relative to control; conditions: UO-31, 48 h, read-out: Activity

Compound: CCCCOc1nc2ccccc2cc1C1CNC(=O)c2ccccc2N1 (centres undefined)
- growth at 0.01 µM [1]: 70%
- growth at 0.01 µM [2]: 96%
- growth at 0.01 µM [3]: 89%
- growth at 0.01 µM [4]: 86%
- growth at 0.1 µM [5]: 100%
- growth at 0.1 µM [6]: 101%
- growth at 0.1 µM [7]: 100%
- growth at 0.1 µM [8]: 92%
- growth at 0.1 µM [9]: 98%
- growth at 0.1 µM [10]: 86%
- growth at 0.1 µM [11]: 99%
- growth at 1 µM [12]: 46%
- growth at 1 µM [13]: 96%
- growth at 1 µM [14]: 78%
- growth at 1 µM [15]: 94%
- growth at 1 µM [16]: 98%
- growth at 1 µM [17]: 63%
- growth at 1 µM [18]: 61%
- growth at 1 µM [19]: 70%
- growth at 10 µM [20]: 6%
- growth at 10 µM [21]: 1%
- growth at 10 µM [22]: 28%
- growth at 100 µM [23]: -55%
- growth at 100 µM [24]: -14%
- growth at 100 µM [25]: -32%
- growth at 100 µM [26]: -70%
- growth at 100 µM [27]: -5%
- growth at 100 µM [28]: -74%
- growth at 100 µM [29]: -92%
- growth at 100 µM [30]: -24%
- growth at 100 µM [31]: -71%
- growth at 100 µM [32]: -58%
- growth at 100 µM [33]: -53%
- growth at 100 µM [34]: -67%
